Test results taken from paper PMC4666645 (PLoS Pathogens, 2015).
Where a name gives a salt, the structure may show the parent alone.

How the values were obtained:
native C. elegans L-AChR = conditions: cited from earlier work
[1] = molecular target: Hco-L-AChR-1 (Hco-UNC-38, Hco-UNC-63, Hco-UNC-29.1, Hco-ACR-8) (Haemonchus contortus, UniProt A9XX24+D6MYE9+D6MYF3+D6MYF4); experiment: Two-electrode voltage-clamp on Xenopus oocytes expressing Hco-L-AChR-1; type: cell-based; conditions: for Response to agonist: 100 μM agonist
Sequence of Hco-L-AChR-1 (Hco-UNC-38, Hco-UNC-63, Hco-UNC-29.1, Hco-ACR-8) (D6MYF3 20-512): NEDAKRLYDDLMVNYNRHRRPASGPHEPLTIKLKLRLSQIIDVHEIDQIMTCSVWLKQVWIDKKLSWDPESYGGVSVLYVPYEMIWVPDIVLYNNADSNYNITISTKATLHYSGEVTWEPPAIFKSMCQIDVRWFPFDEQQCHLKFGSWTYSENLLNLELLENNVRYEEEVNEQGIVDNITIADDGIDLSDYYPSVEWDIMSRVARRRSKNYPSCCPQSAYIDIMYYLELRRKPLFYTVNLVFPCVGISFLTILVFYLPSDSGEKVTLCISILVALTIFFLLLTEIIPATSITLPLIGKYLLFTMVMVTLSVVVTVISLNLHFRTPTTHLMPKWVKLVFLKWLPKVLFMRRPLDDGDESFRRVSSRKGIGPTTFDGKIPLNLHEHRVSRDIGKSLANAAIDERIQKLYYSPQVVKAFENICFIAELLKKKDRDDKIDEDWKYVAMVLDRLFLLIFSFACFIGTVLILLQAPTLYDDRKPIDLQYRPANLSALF
Sequence of Hco-L-AChR-1 (Hco-UNC-38, Hco-UNC-63, Hco-UNC-29.1, Hco-ACR-8) (D6MYF4 22-504): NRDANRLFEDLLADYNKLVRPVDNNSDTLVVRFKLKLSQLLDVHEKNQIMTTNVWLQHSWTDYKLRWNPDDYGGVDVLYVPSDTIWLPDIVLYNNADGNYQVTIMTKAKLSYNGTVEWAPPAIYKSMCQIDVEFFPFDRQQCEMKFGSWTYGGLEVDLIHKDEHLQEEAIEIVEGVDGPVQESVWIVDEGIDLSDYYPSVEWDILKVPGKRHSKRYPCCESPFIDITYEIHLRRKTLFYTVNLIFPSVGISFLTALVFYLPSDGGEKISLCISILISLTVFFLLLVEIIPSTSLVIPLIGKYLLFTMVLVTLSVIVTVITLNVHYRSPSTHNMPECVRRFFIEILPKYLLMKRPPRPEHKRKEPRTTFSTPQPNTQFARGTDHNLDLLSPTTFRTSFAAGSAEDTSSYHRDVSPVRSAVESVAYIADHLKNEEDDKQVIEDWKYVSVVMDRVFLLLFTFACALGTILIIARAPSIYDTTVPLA
Sequence of Hco-L-AChR-1 (Hco-UNC-38, Hco-UNC-63, Hco-UNC-29.1, Hco-ACR-8) (D6MYE9 21-498): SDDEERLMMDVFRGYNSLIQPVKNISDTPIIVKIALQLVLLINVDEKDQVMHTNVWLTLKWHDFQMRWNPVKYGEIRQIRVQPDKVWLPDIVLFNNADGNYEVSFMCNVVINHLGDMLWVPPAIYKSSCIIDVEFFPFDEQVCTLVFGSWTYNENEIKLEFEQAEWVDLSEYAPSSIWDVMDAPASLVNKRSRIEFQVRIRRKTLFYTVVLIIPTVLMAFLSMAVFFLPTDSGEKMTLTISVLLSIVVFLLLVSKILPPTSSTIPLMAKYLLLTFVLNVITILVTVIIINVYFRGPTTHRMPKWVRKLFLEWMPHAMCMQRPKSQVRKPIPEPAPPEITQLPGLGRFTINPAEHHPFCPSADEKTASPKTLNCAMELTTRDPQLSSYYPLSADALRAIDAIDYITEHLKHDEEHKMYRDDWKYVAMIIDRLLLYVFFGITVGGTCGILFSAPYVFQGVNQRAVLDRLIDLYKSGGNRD
Sequence of Hco-L-AChR-1 (Hco-UNC-38, Hco-UNC-63, Hco-UNC-29.1, Hco-ACR-8) (A9XX24 19-536): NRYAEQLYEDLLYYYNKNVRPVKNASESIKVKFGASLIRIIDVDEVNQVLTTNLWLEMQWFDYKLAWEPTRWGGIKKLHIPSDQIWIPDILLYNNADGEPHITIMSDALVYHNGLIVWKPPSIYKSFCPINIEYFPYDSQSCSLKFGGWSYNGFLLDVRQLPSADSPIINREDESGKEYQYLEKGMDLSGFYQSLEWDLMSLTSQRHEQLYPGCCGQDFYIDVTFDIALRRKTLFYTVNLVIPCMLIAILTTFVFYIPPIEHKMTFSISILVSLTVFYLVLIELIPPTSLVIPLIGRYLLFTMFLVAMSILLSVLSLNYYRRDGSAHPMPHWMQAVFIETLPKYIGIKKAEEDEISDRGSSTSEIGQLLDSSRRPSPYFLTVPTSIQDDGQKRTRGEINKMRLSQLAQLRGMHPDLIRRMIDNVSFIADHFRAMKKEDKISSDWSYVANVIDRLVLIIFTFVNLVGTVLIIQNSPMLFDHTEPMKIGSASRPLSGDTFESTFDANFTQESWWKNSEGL
Excerpt: H. contortus and P. equorum acr-26 and acr-27 cDNAs were PCR-amplified using primers containing a restriction site in order to be sub-cloned into the expression vector pTB207 that is suitable for in vitro transcription. Primers are listed in S3 Table. The resulting plasmids were linearized with the NheI restriction enzyme (Fermantas) and used as templates for cRNA synthesis using the T7 mMessage mMachine kit (Ambion). Xenopus laevis ovaries were obtained from the University of Rennes, France (CRB Xenope) and defolliculated using 2 mg/ml collagenase type II (Gibco) in the incubation solution containing: 100 mM NaCl, 2 mM KCl, 1.8 mM CaCl2.2H2O, 1 mM MgCl2.6H2O, 5 mM HEPES, 2.5 mM C3H3NaO3, pH 7.5, supplemented with penicillin 100 U/mL and streptomycin 100 μg/mL). The oocytes were injected in the animal pole with a total volume of 36 nL of cRNA mix containing 50 ng/μL of each cRNA in RNase-free water using the Drummond nanoject II microinjector. Microinjected oocytes were kept at 20°C in incubation medium for 4 days to allow the receptors expression. Two-electrode voltage-clamp recordings were carried out using an Oocyte Clamp OC-725C amplifier (Warner instrument) in oocytes being voltage-clamped at -60mV. All agonist preparations were prepared with recording buffer (100 mM NaCl, 2.5 mM KCl, 1 mM CaCl2.2H2O, 5 mM HEPES, pH 7.3). Currents were recorded and analyzed using the pCLAMP 10.4 package (Molecular Devices).
Supplementary file ppat.1005267.s003.tif: S3 Fig Pharmacological profiles of Hco-L-AChR-1 and Hco-L-AChR-2. […] The bars indicate the time period of the agonist application. Functional expression of Hco-L-AChR-1 requires the co-expression of Hco-UNC-38; Hco-UNC-63; Hco-UNC-29.1 and Hco-ACR-8 AChR subunits with the ancillary proteins Hco-RIC-3.1; Hco-UNC-50 and Hco-UNC-74 whereas Hco-L-AChR-2 requires the co-expression of Hco-UNC-38; Hco-UNC-63 and Hco-UNC-29.1 AChR subunits with the ancillary proteins Hco-RIC-3.1; Hco-UNC-50 and Hco-UNC-74. (C) Scatter plot (mean ± SEM) of normalized currents elicited by 100 μM Mor on Hco-26/27, Hco-L-AChR-1 and Hco-L-AChR-2. Currents have been normalized to and compared with 100 μM ACh elicited currents. Paired Student’s t-test, ***p<0.001. (D) Dose-response relationships of Hco-L-AChR-1 (black circle, n = 7) and Hco-L-AChR-2 (blue squares, n = 9) for Mor. Responses are normalized to 300 μM ACh elicited currents as described in Boulin et al.. […] (TIF) Click here for additional data file.

Row | Structure (SMILES) | EC50 (native C. elegans L-AChR) | Response to agonist [1] | Concentrations with potential channel-block effect [1] | EC50 [1]
1 | c1ccc([C@H]2CN3CCSC3=N2)cc1 [Lev, (-)-tetramisole hydrochloride] | 10 µM | very responsive |  | 
2 | Cc1ccsc1/C=C/C1=NCCCN1C [Mor, morantel] |  | weak response | above 30 μM | 0.41 ± 0.23 µM
